What was measured:
spleen cells of mice = test: Immunologic activity ex-vivo in mice: cytokine secretion from splenocytes activated with GA RS (ELISA); conditions: mice fed daily 250 μg GA equivalent; throughout the test period
Description: The ability of GA-Wax-PVP to elicit an immune response with a similar cytokine pattern as glatiramer acetate solution was tested in an ex-vivo model in mice. The study was conducted over a period of 10 days. Mice were fed daily with GA reference standard (GA RS, 250 μg), GA-Wax-PVP (amount equivalent to 250 μg GA) or Wax-PVP as negative control (similar volume and weight of particles as GA-Wax-PVP). During the study period, subsets of animals in each treatment group were sacrificed on days 3, 6 and 10. Spleens were excised and primary cell cultures were prepared. The effect of the treatment was tested by in-vitro activation of splenocytes with GA RS. The response of the cells to the challenge is a measure of previous exposure to GA. Comparing the immune response of the mice fed GA-Wax-PVP to those fed GA RS gives a measure of the relative exposure to GA that each treatment provided. T-cell response was monitored by detection of cytokines secreted from activated cells by ELISA analysis. The levels of IL-2, TGF-β, IL-4, IL-5, IL-10 and IFN-γ were examined.

[1] = tested on: EAE in the Lewis rat model; test: Efficacy in rat experimental autoimmune encephalomyelitis (EAE); format: in vivo; conditions: for % of inhibition vs. DDW: inhibition of group mean score
Description: In this experiment the goal was to reduce experimental autoimmune encephalomyelitis (EAE) induced clinical signs in the Lewis rat model. Lewis (LEW) rats are highly susceptible to EAE induced with guinea pig spinal cord homogenate (GPSCH) emulsified in modified complete Freund's adjuvant (CFA). […] Decreased signs of EAE in rats with test materials administered orally during the study is considered a protective effect set forth by the experimental design.
The animal were induced with the disease by subcutaneous injection of GPSCH emulsion into both hind paws on day 1.
Initiation of scoring of rats for EAE clinical signs started on day 9. The treatment groups were blinded to the scorer. The treatments or control treatments were started on day 1 and administered daily to day 22. Treatments were administered by oral gavage at a dose and frequency described in Table 2.
There were ten rats in each group.
The animals were accessed daily for EAE clinical signs as described in Table 3.
The number of sick animals in each group were assessed. The day of onset of the symptoms, the duration of days of the symptoms and the number of animals dying were noted and the percentages calculated.
The maximal scores of each of the animals in each group were summed. The mean maximal score of the group was calculated as follows: […]
Σ Maximal score of each rat/number of rats in the group.
The scores of each of the animals in the group were summed and the mean score per day was calculated. The group mean score was calculated as follows: • Σ Total score of each rat per day/number of rats in the group. Results

multiple sclerosis = conditions: cited from earlier work
pancreatin = test: Protection from enzymatic degradation by pancreatin; format: in vitro ADME; conditions: pancreatin:GA 1:10, 37° C., phosphate buffer pH 6.8
Description: The enzymatic degradation of free GA in solution versus GA in the nano suspension (˜50% bound to the nanoparticles) and versus GA bound to the nanoparticles (˜100% bound) was studied using pancreatin. The GA bound to the nanoparticles was prepared by collecting fractions from the void volume of the Sephadex column as described in Example 1 and pooling the samples. Pancreatin is a mixture of pancreatic proteases consisting of trypsin and chymotrypsins.
Pancreatin 3.5 mg was dissolved in 10 ml of 0.05M phosphate buffer pH=6.8. Free GA, GA in nano suspension, or fully bound GA, 35 mg as GA, was dissolved or suspended in 10 ml of 0.05M phosphate buffer pH=6.8. 1 ml of the pancreatin solution and 1 ml of the GA solution or suspension were mixed (the ratio of pancreatin to GA was fixed at 1:10) and held at 37° C. At fixed time points the enzymatic reaction was stopped by adding 0.4 ml of 1N HCl. The residual GA content of the mixture was determined by the HPLC method described in Example 1.

[2] = daily oral gavage day 1-22, 2.5 mg GA/ml, 5 ml/kg

Substance: Glatiramer acetate [GA]
- levels of all the cytokines examined (IL-2, TGF-β, IL-4, IL-5, IL-10, IFN-γ) (spleen cells of mice): similar
- Group Mean Score ([1]; EAE clinical score 0-6): 0.67 ± 0.4
- Mean Maximal Score ([1]; EAE clinical score 0-6): 2.2 ± 1.1
- Incidence % [1, 2]: 89%
- Incidence Total N [1, 2]: 8/9
- Mean Disease Duration [1, 2]: 3.2 ± 1.6 days
- Mean Onset [1, 2]: 13.0 ± 2.5 days
- Mortality % [1, 2]: 0%
- Mortality Total N [1, 2]: 0/10
- Incidence Total N ([1]; daily oral gavage day 1-22, 2.5 mg GA/ml, 5 ml/kg, listed as Glatiramer acetate oral solution): eight of nine
- Daily Mean Score ([1]; day 9, EAE clinical score 0-6): 0.0
- Daily Mean Score ([1]; day 10, EAE clinical score 0-6): 0.0
- Daily Mean Score ([1]; day 11, EAE clinical score 0-6): 0.2
- Daily Mean Score ([1]; day 12, EAE clinical score 0-6): 1.3
- Daily Mean Score ([1]; day 13, EAE clinical score 0-6): 2.0
- Daily Mean Score ([1]; day 14, EAE clinical score 0-6): 1.8
- Daily Mean Score ([1]; day 15, EAE clinical score 0-6): 1.2
- Daily Mean Score ([1]; day 16, EAE clinical score 0-6): 0.1
- Daily Mean Score ([1]; day 17, EAE clinical score 0-6): 0.0
- Daily Mean Score ([1]; day 18, EAE clinical score 0-6): 0.0
- AUC of daily mean score ([1]; days 9-18): 6.6
- % of inhibition vs. DDW [1]: 38%
- % of inhibition vs. DDW ([1]; listed as glatiramer acetate oral solution): 38%
- effect on disease severity of EAE (conclusion) ([1]; oral administration, in words): inhibit the disease severity of EAE in rats
- clinical benefits for MS patients (multiple sclerosis; 20 mg subcutaneous daily injection): extended clinical benefits
- burden of disease lesions in magnetic resonance imaging measures (multiple sclerosis; literature review): significantly reduce
- relapse rate of multiple sclerosis (multiple sclerosis; literature review): significantly reduce
- percent residual GA (pancreatin; 0 min): 100.0 +/− 0.0%
- percent residual GA (pancreatin; 1 min): 75.1 +/− 3.9%
- percent residual GA (pancreatin; 2 min): 63.4 +/− 4.8%
- percent residual GA (pancreatin; 3 min, listed as Free GA, 3 min): 56.3 +/− 4.7%
- percent residual GA (pancreatin; 3 min, listed as free GA): 56%
- percent residual GA (pancreatin; 6 min): 47.1 +/− 4.4%

Source: patent publication US20050170004A1, “Nanoparticles for drug delivery” (priority 2003, published 2005)
